Measured values as given in patent publication US20100272853A1, “Method of Increasing the Milk and/or Meat Quantity of Silage-Fed Animals” (BASF SE, priority 2007, published 2010).

Legend:
Assay type in all cases: in vivo
corn hybrids = experiment: Field trial Wisconsin 2008 with eight corn hybrids: calculated milk production per ton of harvested biomass; settings: for Calculated milk production, Milk (kg/t): Unity, Wis., 2008
Protocol: (§1) Field trials were conducted as strip trials in farm fields in 2006 and 2008. A part of the field was treated with pyraclostrobin applied as Headline® whereas another part was left untreated. Headline® was applied at tassel emergence with 0.44 L/ha (110 g pyraclostrobin per ha) by aerial or ground application with a high clearance sprayer. Total spray volume was 93.5 to 187 L/ha for ground application and 18.7 to 46.7 L/ha for aerial application, respectively. Water was used as a carrier to prepare the spray mixture.
(§2) Trials were harvested using a commercial forage harvester when the corn crop reached a dry matter content of about 30 to 40%. The treated and untreated area of the field was harvested separately to gain total biomass yield (ton/acre). Subsequently, the harvested plant material was used for producing silage.
(§3) Forage samples from the harvested plants were taken from both the treated and untreated areas of the field. Samples were taken from the harvested material in the forage wagon following chopping with the commercial harvester. Multiple forage samples were taken for each of both treatments manually during harvesting in each of the trials, mixed in a larger container, and a subsample of 1.3 to 2.25 kg was taken. The subsamples were placed in plastic bags, sealed, cooled, and shipped immediately to Agsource Soil and Forage Laboratory, 106 North Cecil Street, Bonduel Wis. 54107, USA for Near Infrared Reflectance Spectroscopy (NIRS) analysis.
(§4) Typically, samples for NIRS analysis are first dried at 55 to 65° C. for 24 h to 48 h prior to analysis. A representative subsample thereof is then dried at 105° C. for another 12 h to 24 h to evaluate the dry matter content of the samples. Subsequently, the remaining sample is grinded and homogenized and again a representative subsample is used for the NIRS analysis. The NIRS analysis procedure uses a commercially available calibration to estimate the values for each quality parameter based on the spectral reflectance information gained. The calibrations are based on the near infra red reflectance spectra of samples with known quality data. The comparison of the spectra of the samples with unknown quality data with the spectra of the known samples allows calculating estimates for each quality parameter of interest.
(§5) NIRS analysis provided dry matter, crude protein, Acid Detergent Fibre (ADF), Neutral Detergent Fibre (NDF), and starch data. Calculations were included for moisture, adjusted crude protein, Total Digestible Nutrients (TDN), Net Energy for Lactation (NEL), Net Energy for Gain (NEG) and protein solubility.
(§6) The information was then entered into the MILK 2006 University of Wisconsin Corn Silage evaluation system. Calculations of the milk production, energy content and digestibility per ton of corn biomass were carried out using a calculation method described in:
(§7) a) Schwab, E. C., and R. D. Shaver. 2001: “Evaluation of corn silage nutritive value using MILK2000” (pages 21-24) in Proc. of 25th Forage Production and Use Symposium. WI Forage Council Annual Mtg. Eau Claire, Wis. b) Schwab, E. C., R. D. Shaver. J. G. Lauer, and J. G. Coors. 2003: “Estimating silage energy value and milk yield to rank corn hybrids”. J. Anim. Feed Sci. Technol. 109: 1-18. as well as in c) Undersander, D. J., W. T. Howard, and R. D. Shaver. 1993: “Milk per acre spreadsheet for combining yield and quality into a single term”. J. Prod. Ag. 6: 231 235.
Eight different corn hybrid varieties were tested in a field trial in Unity, Wis., in 2008. Trial setup, application, harvesting, sampling and quality analysis including calculation of milk production per ton followed the procedure described before. Each hybrid was either treated with pyraclostrobin as described before or untreated. The quality data was converted into milk production per ton of harvested biomass for each hybrid as described above.

corn [1] = experiment: Strip field trials Maryland 2006: corn forage quality by NIRS and MILK 2006 calculated milk production
Protocol: as §1, §2, §3, §4, §5, §6, §7
In 2006 a total of 16 strip trials were conducted in Queen Ann County, MD. Trial setup, treatments, application, harvesting, sampling and quality analysis including calculation of milk production per ton and per acre followed the procedure described before.

corn [2] = experiment: Strip field trials Wisconsin 2006: corn forage quality by NIRS and MILK 2006 calculated milk production
Protocol: as §1, §2, §3, §4, §5, §6, §7
In 2006 a total of 7 strip trials were conducted in Manitowoc County, Wis. Trial setup, treatments, application, harvesting, sampling and quality analysis including calculation of milk production per ton and per acre followed the procedure described before.

corn [3] = experiment: Strip field trials New York 2006: corn forage quality by NIRS and MILK 2006 calculated milk production
Protocol: as §1, §2, §3, §4, §5, §6, §7
In 2006 a total of 2 strip trials were conducted in Waterloo, N.Y. Trial setup, treatments, application, harvesting, sampling and quality analysis including calculation of milk production per ton and per acre followed the procedure described before.

[4] = Example 4.5, hybrid N27B CBLLRW
[5] = MD 2006, vs untreated part of field
[6] = average of 16 strip trials, MD 2006, 110 g pyraclostrobin per ha at tassel emergence
[7] = Wis. 2006, vs untreated part of field
[8] = average of 7 strip trials, Wis. 2006, 110 g pyraclostrobin per ha at tassel emergence
[9] = N.Y. 2006, vs untreated part of field
[10] = average of 2 strip trials, N.Y. 2006, 110 g pyraclostrobin per ha at tassel emergence

COC(=O)N(OC)c1ccccc1COc1ccn(-c2ccc(Cl)cc2)n1 [Pyraclostrobin, pyraclostrobin]
Milk, % Difference to Untreated (corn hybrids; Example 4.1, hybrid DS93VT3): +9.6%
Calculated milk production, Milk (kg/t) (corn hybrids; Example 4.1, hybrid DS93VT3): 1608 kg/t
Milk, % Difference to Untreated (corn hybrids; Example 4.2, hybrid S4900VT): +17.5%
Calculated milk production, Milk (kg/t) (corn hybrids; Example 4.2, hybrid S4900VT): 1581 kg/t
Milk, % Difference to Untreated (corn hybrids; Example 4.3, hybrid 3114VT3): +7.1%
Calculated milk production, Milk (kg/t) (corn hybrids; Example 4.3, hybrid 3114VT3): 1648 kg/t
Milk, % Difference to Untreated (corn hybrids; Example 4.4, hybrid 491VT3): +10.9%
Calculated milk production, Milk (kg/t) (corn hybrids; Example 4.4, hybrid 491VT3): 1643 kg/t
Milk, % Difference to Untreated (corn hybrids; [4]): +22.0%
Calculated milk production, Milk (kg/t) (corn hybrids; [4]): 1549 kg/t
Milk, % Difference to Untreated (corn hybrids; Example 4.6, hybrid DS93VT3): +20.9%
Calculated milk production, Milk (kg/t) (corn hybrids; Example 4.6, hybrid DS93VT3): 1600 kg/t
Milk, % Difference to Untreated (corn hybrids; Example 4.7, hybrid DKC48-37): +8.8%
Calculated milk production, Milk (kg/t) (corn hybrids; Example 4.7, hybrid DKC48-37): 1684 kg/t
Milk, % Difference to Untreated (corn hybrids; Example 4.8, hybrid DS93VT3): +8.3%
Calculated milk production, Milk (kg/t) (corn hybrids; Example 4.8, hybrid DS93VT3): 1632 kg/t
milk production per ton of harvested corn biomass, result in words (corn hybrids; across the eight tested different corn hybrids): improves the milk production per ton of harvested corn biomass
% CP, % Difference to Untreated (corn [1]; [5]): +6.0%
% NDFD, % Difference to Untreated (corn [1]; [5]): +3.9%
% Starch, % Difference to Untreated (corn [1]; [5]): +10.2%
Milk (kg/t), % Difference to Untreated (corn [1]; [5]): +5.9%
TDN % of DM, % Difference to Untreated (corn [1]; [5]): +3.6%
% NDF, % Difference to Untreated (corn [1]; MD 2006, vs untreated part of field, decrease means more energy content): −4.8%
in vitro 48-hour digestible NDF expressed as percent of NDF (% NDFD) (corn [1]; [6]): 60.6%
neutral detergent fiber content (% NDF) (corn [1]; [6]): 45.9%
starch content (% Starch) (corn [1]; [6]): 28.2%
total digestible nutrients as percent of dry matter (TDN % of DM) (corn [1]; [6]): 70.0%
calculated value for milk produced per ton of silage (Milk (kg/t)) (corn [1]; average of 16 strip trials, MD 2006, 110 g pyraclostrobin per ha, MILK 2006 calculation): 1730 kg/t
crude protein content (% CP) (corn [1]; average of 16 strip trials, Queen Ann County, MD, 2006, Headline 0.44 L/ha (110 g pyraclostrobin per ha) at tassel emergence): 7.1%
% CP, % Difference to Untreated (corn [2]; [7]): +4.2%
% NDFD, % Difference to Untreated (corn [2]; [7]): +13.2%
% Starch, % Difference to Untreated (corn [2]; [7]): +13.7%
Milk (kg/t), % Difference to Untreated (corn [2]; [7]): +14.0%
% ADF, % Difference to Untreated (corn [2]; Wis. 2006, vs untreated part of field, decrease means more digestibility): −16.2%
% NDF, % Difference to Untreated (corn [2]; Wis. 2006, vs untreated part of field, decrease means more energy content): −13.4%
crude protein content (% CP) (corn [2]; average of 7 strip trials, Manitowoc County, Wis., 2006, 110 g pyraclostrobin per ha at tassel emergence): 7.5%
acid detergent fiber content (% ADF) (corn [2]; [8]): 22.2%
in vitro 48-hour digestible NDF expressed as percent of NDF (% NDFD) (corn [2]; [8]): 67.6%
neutral detergent fiber content (% NDF) (corn [2]; [8]): 39.5%
starch content (% Starch) (corn [2]; [8]): 37.4%
calculated value for milk produced per ton of silage (Milk (kg/t)) (corn [2]; average of 7 strip trials, Wis. 2006, 110 g pyraclostrobin per ha, MILK 2006 calculation): 1815 kg/t
% CP, % Difference to Untreated (corn [3]; [9]): +6.0%
% Dry Matter, % Difference to Untreated (corn [3]; [9]): −2.2%
% NDFD, % Difference to Untreated (corn [3]; [9]): +19.3%
% Starch, % Difference to Untreated (corn [3]; [9]): +15.3%
Milk (kg/t), % Difference to Untreated (corn [3]; [9]): +21.2%
% NDF, % Difference to Untreated (corn [3]; N.Y. 2006, vs untreated part of field, decrease means more energy content): −16.8%
crude protein content (% CP) (corn [3]; [10]): 6.52%
in vitro 48-hour digestible NDF expressed as percent of NDF (% NDFD) (corn [3]; [10]): 51.30%
neutral detergent fiber content (% NDF) (corn [3]; [10]): 38.18%
starch content (% Starch) (corn [3]; [10]): 42.42%
calculated value for milk produced per ton of silage (Milk (kg/t)) (corn [3]; average of 2 strip trials, N.Y. 2006, 110 g pyraclostrobin per ha, MILK 2006 calculation): 1653 kg/t
dry matter content (% Dry Matter) (corn [3]; average of 2 strip trials, Waterloo, N.Y., 2006, 110 g pyraclostrobin per ha at tassel emergence): 36.45%
